These results are taken from patent US10172868B2, “Substituted quinazolines for inhibiting kinase activity” (NeuPharma, Inc., priority 2013, dated 2019).

SMILES strings stand for the structures. Some results are limits rather than exact numbers.

The target of one assay is JAK2 (Homo sapiens (Human), UniProt O60674). Put plainly: Z'-LYTE kinase inhibition assay, JAK2. In kind it is biochemical. To be noted: compound at 0.041 μM; read-out: % inhibition against JAK2. As to the method: Inhibitory activities of compounds against BTK, EGFR and EGFR mutants (EGFR L858R, EGFR T790M, EGFR L858R/T790M), FGFR1, FGFR2, JAK2, JAK3 and KDR were measured by Invitrogen using Z'-LYTE® Method as briefly described in the following.
Test Compounds are screened in 1% DMSO (final) in the well. For 10 point titrations, 3-fold serial dilutions are conducted from the starting concentration. All ATP Solutions are diluted to a 4× working concentration in Kinase Buffer (50 mM HEPES pH 7.5, 0.01% BRIJ-35, 10 mM MgCl2, 1 mM EGTA). Peptide/Kinase Mixtures are diluted to a 2× working concentration in the appropriate Kinase Buffers as described below.
(v) Peptide/Kinase Mixtures for Measurement of JAK2:
The 2×JAK2/Tyr 06 mixture is prepared in 50 mM HEPES pH 7.5, 0.01% BRIJ-35, 10 mM MgCl2, 1 mM EGTA. The final 10 μL Kinase Reaction consists of 0.06-0.81 ng JAK2 and 2 μM Tyr 06 in 50 mM HEPES pH 7.5, 0.01% BRIJ-35, 10 mM MgCl2, 1 mM EGTA. After the 1 hour Kinase Reaction incubation, 5 μL of a 1:64 dilution of Development Reagent A is added.
Reaction starts by 30-second shaking of mixture consisting of 2.5 μL 4× test compound, […] 2× kinase reaction mixture and 2.5 μL 4×ATP Solution on Bar-coded Corning, low volume NBS, black 384-well plate (Corning Cat. #3676). Then the mixture is incubated for 60-minute at room temperature for the kinase reaction, followed by addition of 5 μL of a 1:1024 dilution of development reagent A and 30-second plate shake. The mixture is then incubated for another 60-minute at room temperature for development reaction. Finally fluorescence is read by plate reader.

The subject of a further assay is H1975 cells. Put plainly: Inhibition of cancer cell growth, MTT assay, H1975. The following applies: Homo sapiens, NCI-H1975, 72 h, read-out: IC50 in H1975 cells. In general terms: Formazan colour is commonly taken as a measure of viable cells.
For a further assay, the system named is HCC827 cells. Nature of the assay: cells. The following applies: Homo sapiens, HCC827, 72 h, read-out: IC50 in HCC827 cells.
For the next assay, the target named is BTK (Homo sapiens (Human), UniProt Q06187). Nature of the assay: Z'-LYTE kinase inhibition assay, BTK. In kind it is biochemical. The following applies: compound at 0.041 μM; read-out: % inhibition against BTK. The method, boiled down:
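Z'-LYTE FRET assay with Tyr 01 peptide in 50 mM HEPES pH 7.5, 10 mM MgCl2, 1 mM EGTA, 0.01% BRIJ-35. Compounds in 1% DMSO were tested as 10-point, 3-fold titrations.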

A further assay has as its system A431 cells. Put plainly: cells. The following applies: Homo sapiens, A-431, 72 h, read-out: IC50 in A431 cells.
A further assay addresses EGFR (ErbB1) T790M L858R (Homo sapiens (Human), UniProt P00533, L858R/T790M). Put plainly: Z'-LYTE kinase inhibition assay, EGFR L858R/T790M. Type of assay: biochemical. To be noted: read-out: IC50 against EGFR L858R/T790M. The method, boiled down: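 Z'-LYTE FRET peptide assay at 1% DMSO, 10-point 3-fold titrations; kinase/peptide mix in 50 mM HEPES pH 6.5, 0.01% BRIJ-35, 10 mM MgCl2, 1 mM EGTA, 0.02% NaN3. Kinase reaction ran 60 min at room temperature, followed by 60 min development and a fluorescence read. IC50 derived from the concentration series.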

Another assay deals with H1299 cells. Nature of the assay: Inhibition of cancer cell growth, MTT assay, H1299. To be noted: Homo sapiens, NCI-H1299, 72 h, read-out: IC50 in H1299 cells.
For another assay, the target named is EGFR (ErbB1) (Homo sapiens (Human), UniProt P00533). Nature of the assay: Z'-LYTE kinase inhibition assay, EGFR. Type of assay: biochemical. The method, boiled down: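 Z'-LYTE FRET assay run with 1.1-5.25 ng EGFR and 2 μM peptide substrate in 50 mM HEPES pH 7.5, 10 mM MgCl2, 2 mM MnCl2, 1 mM EGTA, 1 mM DTT, 0.01% BRIJ-35, 1% DMSO. Kinase reaction 60 min at room temperature, then 60 min development; IC50 from 10-point 3-fold titrations.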
Chain of EGFR (ErbB1) (P00533 25-1210): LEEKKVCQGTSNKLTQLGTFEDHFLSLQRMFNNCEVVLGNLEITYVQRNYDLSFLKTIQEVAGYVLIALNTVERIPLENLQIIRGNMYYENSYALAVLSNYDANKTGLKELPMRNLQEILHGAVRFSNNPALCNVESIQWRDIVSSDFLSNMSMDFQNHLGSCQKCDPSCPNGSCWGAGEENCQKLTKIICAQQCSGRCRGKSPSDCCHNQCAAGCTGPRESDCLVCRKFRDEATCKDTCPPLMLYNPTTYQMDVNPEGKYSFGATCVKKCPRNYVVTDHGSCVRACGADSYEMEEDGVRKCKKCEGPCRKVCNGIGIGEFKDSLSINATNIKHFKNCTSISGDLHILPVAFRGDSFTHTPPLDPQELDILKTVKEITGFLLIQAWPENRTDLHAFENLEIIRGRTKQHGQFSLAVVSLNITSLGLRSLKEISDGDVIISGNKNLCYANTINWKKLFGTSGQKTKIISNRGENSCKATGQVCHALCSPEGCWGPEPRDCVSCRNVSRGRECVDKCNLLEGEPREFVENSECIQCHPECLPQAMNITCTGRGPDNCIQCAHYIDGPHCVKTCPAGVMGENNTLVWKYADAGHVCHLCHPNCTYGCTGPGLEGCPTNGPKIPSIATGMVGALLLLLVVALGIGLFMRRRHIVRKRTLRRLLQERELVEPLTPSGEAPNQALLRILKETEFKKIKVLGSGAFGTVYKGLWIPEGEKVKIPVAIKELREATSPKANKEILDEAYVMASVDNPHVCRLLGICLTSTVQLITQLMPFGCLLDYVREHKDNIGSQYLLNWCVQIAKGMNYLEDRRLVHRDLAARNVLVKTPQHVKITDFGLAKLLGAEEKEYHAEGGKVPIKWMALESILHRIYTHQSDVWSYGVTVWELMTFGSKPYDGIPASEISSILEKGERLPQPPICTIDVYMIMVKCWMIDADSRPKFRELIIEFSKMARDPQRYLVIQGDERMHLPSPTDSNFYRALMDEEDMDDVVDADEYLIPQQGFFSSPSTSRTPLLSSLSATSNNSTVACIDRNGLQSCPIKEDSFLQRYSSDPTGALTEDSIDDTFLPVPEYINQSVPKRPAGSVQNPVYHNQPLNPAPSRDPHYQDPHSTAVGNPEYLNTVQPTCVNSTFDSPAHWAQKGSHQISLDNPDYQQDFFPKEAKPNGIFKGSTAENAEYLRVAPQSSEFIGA

Chain of BTK (Q06187 whole entry): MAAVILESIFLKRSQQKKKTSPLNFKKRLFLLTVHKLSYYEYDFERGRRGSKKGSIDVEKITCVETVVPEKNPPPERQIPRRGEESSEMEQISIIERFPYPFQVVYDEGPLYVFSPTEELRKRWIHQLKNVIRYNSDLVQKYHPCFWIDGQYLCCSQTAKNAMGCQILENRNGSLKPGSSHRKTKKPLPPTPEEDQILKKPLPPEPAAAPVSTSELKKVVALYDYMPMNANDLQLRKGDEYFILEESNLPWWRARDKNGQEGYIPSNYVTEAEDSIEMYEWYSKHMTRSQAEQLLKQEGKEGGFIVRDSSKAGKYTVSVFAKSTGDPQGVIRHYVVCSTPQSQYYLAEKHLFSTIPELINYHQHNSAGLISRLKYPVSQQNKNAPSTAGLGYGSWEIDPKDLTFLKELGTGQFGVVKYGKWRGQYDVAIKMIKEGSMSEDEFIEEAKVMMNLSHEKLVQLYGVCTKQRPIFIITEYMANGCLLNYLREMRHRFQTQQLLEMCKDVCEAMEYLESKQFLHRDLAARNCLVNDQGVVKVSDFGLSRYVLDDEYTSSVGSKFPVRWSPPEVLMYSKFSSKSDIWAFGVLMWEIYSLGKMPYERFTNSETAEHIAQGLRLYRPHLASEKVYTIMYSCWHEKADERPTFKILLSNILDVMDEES
Chain of EGFR (ErbB1) T790M L858R (P00533 25-1210 T790M/L858R): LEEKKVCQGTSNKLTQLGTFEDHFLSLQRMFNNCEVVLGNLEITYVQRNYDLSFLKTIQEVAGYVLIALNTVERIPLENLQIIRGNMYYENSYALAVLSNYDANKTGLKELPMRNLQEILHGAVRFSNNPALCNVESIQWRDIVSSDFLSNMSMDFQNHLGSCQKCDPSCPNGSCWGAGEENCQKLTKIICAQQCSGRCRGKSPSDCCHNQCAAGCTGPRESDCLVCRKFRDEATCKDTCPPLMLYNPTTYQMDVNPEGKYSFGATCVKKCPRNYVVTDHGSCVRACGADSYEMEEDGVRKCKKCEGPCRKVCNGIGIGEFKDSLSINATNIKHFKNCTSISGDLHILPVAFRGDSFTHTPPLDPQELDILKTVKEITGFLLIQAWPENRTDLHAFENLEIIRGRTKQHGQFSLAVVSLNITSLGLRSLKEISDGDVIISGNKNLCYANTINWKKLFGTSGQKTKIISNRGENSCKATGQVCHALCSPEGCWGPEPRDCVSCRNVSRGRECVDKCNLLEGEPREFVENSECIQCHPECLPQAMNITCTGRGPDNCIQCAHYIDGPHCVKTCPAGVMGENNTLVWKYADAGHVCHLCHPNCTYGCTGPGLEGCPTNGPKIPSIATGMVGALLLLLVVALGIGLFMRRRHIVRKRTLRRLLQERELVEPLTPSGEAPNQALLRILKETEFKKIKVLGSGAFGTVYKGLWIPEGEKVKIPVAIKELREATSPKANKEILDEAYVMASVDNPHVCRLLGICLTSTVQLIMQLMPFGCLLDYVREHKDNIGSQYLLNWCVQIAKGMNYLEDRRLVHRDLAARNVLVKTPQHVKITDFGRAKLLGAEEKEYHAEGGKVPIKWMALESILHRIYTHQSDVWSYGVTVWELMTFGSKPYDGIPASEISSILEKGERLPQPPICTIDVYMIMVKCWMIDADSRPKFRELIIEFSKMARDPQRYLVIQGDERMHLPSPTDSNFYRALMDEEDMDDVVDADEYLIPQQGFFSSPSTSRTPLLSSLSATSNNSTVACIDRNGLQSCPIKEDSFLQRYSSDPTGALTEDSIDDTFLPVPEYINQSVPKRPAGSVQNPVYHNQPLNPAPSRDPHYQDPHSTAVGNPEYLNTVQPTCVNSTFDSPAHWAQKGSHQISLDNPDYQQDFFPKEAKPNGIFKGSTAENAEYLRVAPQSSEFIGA
Chain of JAK2 (O60674 whole entry): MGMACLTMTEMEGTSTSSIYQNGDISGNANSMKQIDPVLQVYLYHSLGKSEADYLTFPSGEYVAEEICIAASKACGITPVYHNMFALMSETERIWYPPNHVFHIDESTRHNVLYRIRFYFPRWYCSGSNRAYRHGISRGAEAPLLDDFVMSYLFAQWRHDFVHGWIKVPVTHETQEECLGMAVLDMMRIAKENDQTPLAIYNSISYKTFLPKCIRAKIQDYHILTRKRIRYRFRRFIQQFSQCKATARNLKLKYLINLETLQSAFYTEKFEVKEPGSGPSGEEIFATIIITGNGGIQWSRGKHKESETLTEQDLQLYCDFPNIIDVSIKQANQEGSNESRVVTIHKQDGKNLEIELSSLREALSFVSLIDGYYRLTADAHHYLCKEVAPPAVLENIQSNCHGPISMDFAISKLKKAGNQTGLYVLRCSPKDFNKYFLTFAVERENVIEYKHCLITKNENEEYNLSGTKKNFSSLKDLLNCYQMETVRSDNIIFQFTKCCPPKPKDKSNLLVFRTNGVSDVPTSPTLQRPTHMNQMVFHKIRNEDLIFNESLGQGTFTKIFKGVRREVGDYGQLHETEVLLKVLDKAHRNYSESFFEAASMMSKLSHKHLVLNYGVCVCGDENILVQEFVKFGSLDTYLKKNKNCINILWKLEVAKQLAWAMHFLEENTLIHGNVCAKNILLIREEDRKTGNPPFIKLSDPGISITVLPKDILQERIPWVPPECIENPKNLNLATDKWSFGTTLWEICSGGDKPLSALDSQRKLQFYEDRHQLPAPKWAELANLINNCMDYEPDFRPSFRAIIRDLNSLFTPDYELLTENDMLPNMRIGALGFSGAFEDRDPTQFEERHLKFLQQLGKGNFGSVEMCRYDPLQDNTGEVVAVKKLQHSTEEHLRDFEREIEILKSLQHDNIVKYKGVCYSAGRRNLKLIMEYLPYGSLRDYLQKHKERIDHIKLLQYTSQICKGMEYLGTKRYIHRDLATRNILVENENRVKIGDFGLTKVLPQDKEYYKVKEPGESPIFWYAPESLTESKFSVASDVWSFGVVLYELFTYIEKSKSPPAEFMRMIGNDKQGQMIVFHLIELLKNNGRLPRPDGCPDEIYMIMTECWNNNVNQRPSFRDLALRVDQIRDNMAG
Procedure for A431 cells: (§1) Taxol (as a positive control. Sigma) and compounds were dissolved in DMSO (Sigma), and the final concentration of DMSO in the medium was 1%. Tumor cells were plated in 96-well plates at densities of about 4000 cells/well of a 96-well plate and allowed to adhere/grow for 24 h. They were then treated with various concentrations of drug for 72 h, 3-(4,5-Dimethylthiazol-2-yl)-2,5-diphenyltetrazolium bromide (MTT, Sigma) was used to determine the number of viable cells at the time of compound addition and the number of cells remaining after 72 h compound exposure. The number of cells remaining after 72 h was compared to the number of viable cells at the time of compound addition by measuring the absorbance at 570 nm, allowing for the calculation of growth inhibition.
(§2) All concentrations of compounds were tested in triplicate and controls were averaged over 4 wells. IC50 was calculated by plotting the concentration of compound vs the percentage of inhibition in treated wells using GraphPad Prism 5.
(§3) The scale utilized in Tables 5 is as follows: +++ less than 100 nM; ++ between 100 nM and 500 nM; and + greater than 500 nM.
Procedure for HCC827 cells: as §1, §2, §3

As for `C=CC(=O)Nc1cccc(-c2cccc3cnc(Nc4ccc(N5CCN(C(C)=O)CC5)cc4)nc23)c1` [Example C032, N-(3-(2-((4-(4-acetylpiperazin-1-yl)phenyl)amino)quinazolin-8-yl)phenyl)acrylamide], the inhibition at 0.041 µM on JAK2 and at BTK was over 50% each time. For the same compound, the IC50 with H1975 cells is 100 to 500 nM; in the assay on HCC827 cells, under 100 nM; in the assay on A431 cells, 100 to 500 nM; at EGFR (ErbB1) T790M L858R it was under 100 nM; with H1299 cells it was over 500 nM. For the same compound, the inhibition (as a rule, the change of the read-out against control, counted positive when it falls) at 1 µM on EGFR (ErbB1) (read-out: % inhibition against EGFR (Compound at 1 μM)) was over 50%.

With `C=CC(=O)Nc1cncc(-c2cccc3cnc(Nc4ccc(N5CCN(C)CC5)cc4)nc23)c1` [Example C040, N-(5-(2-((4-(4-methylpiperazin-1-yl)phenyl)amino)quinazolin-8-yl)pyridin-3-yl)acrylamide], the inhibition at 0.041 µM is under 50% at JAK2, over 50% at BTK and over 50% on EGFR (ErbB1) (read-out: % inhibition against EGFR (Compound at 0.041 μM)). Moreover, the IC50 is under 100 nM with H1975 cells; under 100 nM with HCC827 cells; 100 to 500 nM with A431 cells; under 100 nM at EGFR (ErbB1) T790M L858R; 100 to 500 nM with H1299 cells; under 100 nM at EGFR (ErbB1) (read-out: IC50 against EGFR).
